From US11168302B2, “Method for differentiation into retinal ganglion cells from stem cells” (ClavisTherapeutics, INC., priority 2014, dated 2021)
“Also recorded” adds a separate entry of the source.

How the values were obtained:
[1] = system: voltage-gated sodium channel; format: cell-based, human
[2] = system: human pluripotent stem cell-derived retinal ganglion cell line; assay: Live cell Ca2+ imaging of retinal ganglion cell line; format: cell-based; details: 1 mM glutamate stimulation; Fluo-4; passaged cell line
Procedure: For calcium imaging, cells cultured on 18 mm coverslip were washed with Tyrode's solution (119 mM NaCl, 2.5 mM KCl, 2 mM CaCl2), 2 mM MgCl2, 25 mM HEPES, 30 mM glucose, pH 7.4) twice or three times, and then cultured at 37° C. with addition of 1 μM Fluo-4-AM (Life technologies, Carlsbad, Calif., USA). After culturing for 15 min, cells were washed with Tyrode's solution for 10 min. Time differential images were obtained by using an Olympus IX-71 inverted microscope (Olympus, Tokyo, Japan) equipped with 40×(1.0 NA) oil lens and EMCCD (iXon887, Andor Technologies, Belfast, Northern Ireland) every 0.5 sec for 30 min. From the 10th image frame, cells were stimulated with 1 mM glutamate. After stimulation, cells were infused with Tyrode's solution.

[3] = system: AMPA receptor; assay: Recording of spontaneous excitatory postsynaptic currents (sEPSCs) in stem cell-derived retinal ganglion cells; format: cell-based, human; details: H9-derived RGCs, CNQX 50 μM
[4] = system: outward potassium current; assay: Whole-cell patch clamp recording of potassium current in stem cell-derived retinal ganglion cells; format: cell-based, human; details: Protocol A, 4-AP 1 mM
[5] = system: human embryonic stem cell-derived retinal ganglion cells; assay: Differentiation by other Wnt signaling pathway and Shh receptor activators, immunofluorescence of Islet-1 and NF200; format: cell-based; details: day 39, Protocol A schedule; BIO 2 μM, Norrin 50 ng/mL, purmorphamine 1 μM, RA 500 nM
Procedure: On day 14 after induction of differentiation, retinal progenitor cells generated in Example 3 were cultured and differentiated into immature retinal ganglion cells for 3 days in a differentiation medium [DMEM/F12 (Invitrogen), 1 mM L-glutamine (Invitrogen), 0.1 mM nonessential amino acids (Invitrogen), 0.1 mM mercaptoethanol (Sigma-Aldrich), 1% B27 supplement (Invitrogen), 1% N2 supplement (Invitrogen), 10 ng/mL Noggin, 10 ng/mL IGF-1, 5 ng/mL FGF2, 50 ng/mL recombinant Wnt3a (R&D Systems)] containing 2 μM BIO (6-bromoindirubin-3′-oxime) or 50 ng/mL Norrin as the Wnt signaling pathway activator instead of 50 ng/mL recombinant Wnt3a. On day 17 after induction of differentiation, immature retinal ganglion cells thus generated were cultured and differentiated into mature retinal ganglion cells for 5 days in a differentiation medium [DMEM/F12 (Invitrogen), 1 mM L-glutamine (Invitrogen), 0.1 mM nonessential amino acids (Invitrogen), 0.1 mM mercaptoethanol (Sigma-Aldrich), 1% B27 supplement (Invitrogen), 1% N2 supplement (Invitrogen), 10 ng/mL IGF-1, 250 ng/mL recombinant Shh (R&D Systems)] containing 1 μM purmorphamine as the Shh receptor activator instead of 250 ng/mL Shh. On day 22 after induction of differentiation, the mature retinal ganglion cells were matured for 39 days using a medium prepared by adding 500 nM retinoic acid (RA) to the above differentiation medium.
The immunofluorescence assay of the cells generated by this method was performed using retinal ganglion cell markers, Islet-1 and NF200, and the results were consistent with the results of using Wnt3a and Shh (FIG. 21).

[6] = system: retinal ganglion cells; assay: Effects of Wnt3a, Shh and RA in Protocol A differentiation, immunofluorescence assay with retinal ganglion cell-specific markers; format: cell-based, human; set-up: production of retinal ganglion cells: dose or concentration left out as unconfirmed; details: day 39
Procedure: After being blocked for 90 min, the slides in each differentiation step were incubated overnight at 4° C. with antibodies specific to cells of each differentiation step as given in Table 1. Before use, these antibodies were diluted in a PBS solution containing 1% BSA and 0.25% Triton X-100. The cells cultured on the slides in each step were washed three times for 5 min with PBS and incubated at room temperature for 2 hr with species-specific secondary antibody conjugated with Cy3 (1:800, Jackson Immunoresearch Laboratory) or Alexa488 (1:500, Invitrogen) (Table 1). A standard material suitable for the primary and the secondary antibodies was used to examine non-specific staining or interaction between the antibodies. Thereafter, the cells were washed three times for 5 min with PBS, counterstained with DAPI (4′,6-diamidino-2 phenylindole) and mounted in Vectashield (Vector Laboratories), followed by visualization under an epifluorescence microscope (Nikon Eclipse, E800, Tokyo, Japan) and a confocal microscope (Zeiss LSM510, Carl Zeiss, Inc, Thornwood, N.Y., USA). 500 cells were counted from 20 microscopic fields randomly selected at 400 magnification and evaluated for positive responses to each antibody. Positive responses to antibodies were determined after at least three evaluations.
To examine effects of each of Wnt3a, Shh and RA used in the Protocol A differentiation method during production of retinal ganglion cells, respective factors were treated according to a differentiation schedule of Protocol A, and on day 39 after induction of differentiation, an immunofluorescence assay was performed using retinal ganglion cell-specific markers (FIG. 22).

Molecule: NC1=N[C@H](O)[C@H]2[C@H]3O[C@]4(O)O[C@@H]([C@@H](O)[C@@]2(N1)[C@@H]4O)[C@]3(O)CO [tetrodotoxin]
- fast-activating and inactivating inward sodium currents [1]: completely blocked

Molecule: N[C@@H](CCC(=O)O)C(=O)O [glutamate]
- cytoplasmic calcium level [2]: considerably increased; also recorded: considerable increase

Molecule: N#Cc1cc2c(cc1[N+](=O)[O-])=NC(=O)C(=O)N=2 [CNQX, 6-cyano-7-nitroquinoxaline-2,3-dione]
- appearance of sEPSCs ([3]; Protocol A, day 59): blocked
- appearance of sEPSCs ([3]; Protocol B, day 96): blocked

Molecule: Nc1ccncc1 [4-Aminopyridine, 4-aminopyridine]
- fast-activating fraction of outward potassium current ([4]; H9-derived RGCs, day 59): blocked
- fast-activating fraction of outward potassium current ([4]; iPSC-derived RGCs, day 39): blocked

Molecule: O=C1Nc2cc(Br)ccc2/C1=C1/Nc2ccccc2/C1=N\O [BIO, 6-bromoindirubin-3′-oxime]
- immunofluorescence staining of Islet-1 and NF200 compared with Wnt3a and Shh [5]: consistent with the immunofluorescence staining results of Wnt3a and Shh

Molecule: c1ccc2c(Oc3nc(Nc4ccc(N5CCOCC5)cc4)c4ncn(C5CCCCC5)c4n3)cccc2c1 [purmorphamine]
- immunofluorescence staining of Islet-1 and NF200 compared with Wnt3a and Shh [5]: consistent with the immunofluorescence staining results of Wnt3a and Shh

B1: Dkkl: Wnt3a antagonist; recombinant Dickkopf-1, Wnt signaling pathway inhibitor (protein, UniProt O94907 32-266, looked up)
Dickkopf-related protein 1: TLNSVLNSNAIKNLPPPLGGAAGHPGSAVSAAPGILYPGGNKYQTIDNYQPYPCAEDEECGTDEYCASPTRGGDAGVQICLACRKRRKRCMRHAMCCPGNYCKNGICVSSDQNHFRGEIEETITESFGNDHSTLDGYSRRTTLSSKMYHTKGQEGSVCLRSSDCASGLCCARHFWSKICKPVLKEGQVCTKHRRKGSHGLEIFQRCYCGEGLSCRIQKDHHQASNSSRLHTCQRH
- production of retinal ganglion cells ([6]; instead of Wnt3a days 14 to 17, Shh and RA per schedule): hardly produced

B2: Wnt3a: recombinant Wnt3a, Wnt signaling pathway activator (protein, UniProt P56704 19-352, looked up)
Protein Wnt-3a: SYPIWWSLAVGPQYSSLGSQPILCASIPGLVPKQLRFCRNYVEIMPSVAEGIKIGIQECQHQFRGRRWNCTTVHDSLAIFGPVLDKATRESAFVHAIASAGVAFAVTRSCAEGTAAICGCSSRHQGSPGKGWKWGGCSEDIEFGGMVSREFADARENRPDARSAMNRHNNEAGRQAIASHMHLKCKCHGLSGSCEVKTCWWSQPDFRAIGDFLKDKYDSASEMVVEKHRESRGWVETLRPRYTYFKVPTERDLVYYEASPNFCEPNPETGSFGTRDRTCNVSSHGIDGCDLLCCGRGHNARAERRREKCRCVFHWCCYVSCQECTRVYDVHTCK
- caliber growth and fasciculation of axons (NF200 staining) ([6]; Protocol A schedule): delayed
- synaptogenesis and dendritic spine development (TUJ1 staining) ([6]; Protocol A schedule): no synaptogenesis and dendritic spine development
- retinal ganglion cells produced ([6]; factors treated per Protocol A schedule): ≥ 80%

B3: Norrin: Wnt signaling pathway activator; binds to Frizzled4 receptor (protein, UniProt Q00604 25-133, looked up)
Norrin: KTDSSFIMDSDPRRCMRHHYVDSISHPLYKCSSKMVLLARCEGHCSQASRSEPLVSFSTVLKQPFRSSCHCCRPQTSKLKALRLRCSGGMRLTATYRYILSCHCEECNS
- immunofluorescence staining of Islet-1 and NF200 compared with Wnt3a and Shh [5]: consistent with the immunofluorescence staining results of Wnt3a and Shh
